In patent publication US12448383B2, “Compounds and methods for treatment of viral infections” (priority 2022, dated 2025):

Experiments:
[1] = tested on: Caco-2 cells (clone C2BBe1); assay: CACO-2 permeability; type: in vitro ADME; parameters: unit not given here; conditions: for DM Caco2 A to B: apical to basolateral, donor pH 6.5, receiver pH 7.4; for DM Caco2 B to A: basolateral to apical
Procedure: Pre-plated Caco-2 cells (clone C2BBel) were obtained from Sigma-Aldrich, Inc. (Atlanta, GA). Cell monolayers were grown to confluence on collagen-coated, microporous, polycarbonate membranes in 24-well transwell plates for 21 days. The permeability assay buffer in donor wells was Hanks' balanced salt solution (HBSS) containing 10 mM HEPES and 15 mM glucose at a pH of 6.5 containing 200 μM BNPP. The receiver wells used HBSS buffer containing 10 mM HEPES and 15 mM glucose at a pH of 7.4 and supplemented with 1°% BSA. After an initial equilibration with transport buffer, TEER values were read to test membrane integrity. The experiment was started by the addition of buffers containing test compounds, 200 μl and 1000 μl in the apical and basolateral chamber, respectively. At 0- and 2-hour post dose, 10 μL was sampled from donor compartment and was immediately diluted in 190 μL of 20% methanol. At 1 and 2 hours post dose, 100 μl of solution was taken from the receiver compartments and was immediately diluted in 100 μl of 20% methanol. Removed buffer was replaced with fresh buffer and a correction was applied to all calculations for the removed material. Each compound was tested in 2 separate replicate wells for each condition. All samples were then extracted with 400 μl 100% acetonitrile with internal standard to precipitate protein. Cells were dosed on the apical or basolateral side to determine forward (A to B) and reverse (B to A) permeability. To test for non-specific binding and compound instability, the total amount of drug was quantitated at the end of the experiment and compared to the material present in the original dosing solution as a percent recovery. […] Samples were analyzed by LC-MS/MS.

[2] = Plasma stability; type: in vitro ADME; parameters: unit not given here; conditions: 37° C., 2 μM substrate
Procedure: At 0.05, 0.5, 1, 2, 3 and 4 hr, […] aliquots of the reaction mixture were transferred to plates containing […] of IS/Q quenching solution. After quenching, the plates were centrifuged at 3000 g for 30 minutes, and 150 μL supernatant was diluted with 150 μL water. Aliquots ([…]) of the diluted supernatant were analyzed on a Thermo Q-Exactive mass spectrometer as described below.
Mobile phase A consisted of 0.1% (v/v) formic acid in water. Mobile phase B consisted of 0.1% (v/v) formic acid in acetonitrile. Elution of analytes was achieved by a series of linear gradients of acetonitrile in water containing 0.1°(v/v) formic acid. The mass spectrometer was calibrated on a weekly basis and mass tolerance of 5 ppm was used.

[3] = tested on: SARS Coronavirus 2 recombinant with NanoLuc (SARS-CoV2-NLuc) in A549-hACE2 cells; assay: organism not typed; type: cell-based; conditions: 48 h; read-out: SARS-CoV2 EC50
[4] = CC50 MT4 cytotoxicity (Cell-Titer Glo); type: cell-based; conditions: human
Procedure: Cytotoxicity of the compounds was determined in uninfected cells using the cell viability reagent in a similar fashion as described before for other cell types (Cihlar et al., Antimicrob Agents Chemother. 2008, 52(2):655-65). HEp-2 (1.5×10^3 cells/well) and MT-4 (2×10^3 cells/well) cells were plated in 384-well plates and incubated with the appropriate medium containing 3-fold serially diluted compound ranging from 15 nM to 100,000 nM. Cells were cultured for 4-5 days at 37° C. Following the incubation, the cells were allowed to equilibrate to 25° C., and cell viability was determined by adding Cell-Titer Glo viability reagent. The mixture was incubated for 10 min, and the luminescence signal was quantified using an Envision plate reader. Untreated cell and cells treated at 2 μM puromycin (Sigma, St. Louis, MO) serve as 100% and 0% cell viability control, respectively. The percent of cell viability was calculated for each tested compound concentration relative to the 0% and 100% controls and the CCso value was determined by non-linear regression as a compound concentration reducing the cell viability by 50%.

[5] = tested on: Respiratory syncytial virus recombinant with luciferase (RSV-Luc5) in Normal Human Bronchial Epithelial (NHBE) cells; assay: microbe, parasite or virus in culture; type: cell-based; conditions: 72 h, read-out: RSV NHBE EC50
[6] = GI S9 stability - no PMSF; type: in vitro ADME; parameters: GIS9-HUMAN-NoPMSF T1/2: unit: min; conditions: human intestinal S9, PMSF-free; for half-life at 2 µM: pH 7.4, read-out: GIS9-HUMAN-NoPMSF T1/2
Procedure: Duplicate aliquots of test compound or positive control substrate (GS-7340) were added to S9 stock diluted with 100 mM phosphate buffered saline, pH 7.4, to obtain a protein concentration of 1.0 mg/mL. The S9 metabolic reactions were initiated by the addition of the substrates to the S9 reaction mixture to a final concentration of 2 μM. At 0, 10, 20, 30, 60 and 120 min, […] aliquots of the reaction mixture were transferred to plates containing […] of IS/Q solution. After quenching, the plates were centrifuged at 3000 g for 30 minutes, and 150 μL aliquots of each supernatant were diluted with 150 μL water. Aliquots ([…]) of the diluted supernatant were analyzed on a Thermo Q-Exactive mass spectrometer as described below. GI S9 Stability—No phenylmethylsulfonyl fluoride (PMSF): Similar to the procedure described above, test compounds were incubated at 2 μM with 1 mg/mL PMSF-free Intestinal S9 fractions. Samples are removed at 6 time points over the course of a 120 min experiment and the parent compound disappreance and reference compound A formation is determined by mass spectrometry.
Example K: Liquid Chromatography/Mass Spectroscopy Methods for S9 and Plasma Stability
Quantification of test compounds, Reference Compound A (S9 stability assay nucleoside metabolite), and controls was performed by analyte/internal standard peak area ratio (PAR) values measured on a Thermo Q-Exactive mass spectrometer coupled to a Dionex UltiMate 3000 HPLC with a Leap Technologies HTC PAL autosampler. The column used for analysis of test compounds and Reference Compound A was a Waters Acquity BEH C18 ([…] particle size, 2.1′50 mm). The column used for control (GS-7340) was a Thermo Hypersil GOLD ([…] particle size, 2.1′50 mm). Mobile phase A consisted of 0.1% (v/v) formic acid in water. Mobile phase B consisted of 0.1% (v/v) formic acid in acetonitrile. Elution of analytes was achieved by a series of linear gradients of acetonitrile in water containing 0.1°(v/v) formic acid. The mass spectrometer was calibrated on a weekly basis and mass tolerance of 5 ppm was used.

Row | SMILES | DM Caco2 A to B [1] | DM Caco2 B to A [1] | STA Human Plasma 37 [2] | EC50 [3] [µM] | CC50 [4] [µM] | EC50 [5] [µM] | half-life at 2 µM [6] [min] | GIS9-HUMAN-NoPMSF T1/2 [6]
1 | N#C[C@@]1(c2ccc3c(N)ncnn23)O[C@H](CO)[C@@H](O)[C@H]1O [Reference Compound A, (2R,3R,4S,5R)-2-(4-aminopyrrolo[2,1-f][1,2,4]triazin-7-yl)-3,4-dihydroxy-5-(hydroxymethyl)tetrahydrofuran-2-carbonitrile, reference compound] | 0.12 | 1.52 |  |  |  |  |  | 
2 | CC1(OC(=O)OC[C@H]2O[C@@](C#N)(c3ccc4c(N)ncnn34)[C@H](O)[C@@H]2O)CCCCCCC1 [Compound 57, ((2R,3S,4R,5R)-5-(4-aminopyrrolo[2,1-f][1,2,4]triazin-7-yl)-5-cyano-3,4-dihydroxytetrahydrofuran-2-yl)methyl (1-methylcyclooctyl) carbonate] |  |  | 317.5 | 2.29 | > 50 | 2.45 |  | 
3 | C=CCCOC(=O)O[C@H]1[C@@H](OC(=O)OCCC=C)[C@](C#N)(c2ccc3c(N)ncnn23)O[C@@H]1COC(=O)OC(C)C [Compound 136, (2R,3R,4R,5R)-2-(4-aminopyrrolo[2,1-f][1,2,4]triazin-7-yl)-2-cyano-5-(((isopropoxycarbonyl)oxy)methyl)tetrahydrofuran-3,4-diyl di(but-3-en-1-yl) bis(carbonate)] | 4.33 | 5.7 | 463.08 | 4.7 | > 50 | 2.03 | 1.01 | 
4 | Cc1ccc(C(C)C)c(OC(=O)OC[C@H]2O[C@@](C#N)(c3ccc4c(N)ncnn34)[C@H](O)[C@@H]2O)c1 [Compound 82, ((2R,3S,4R,5R)-5-(4-aminopyrrolo[2,1-f][1,2,4]triazin-7-yl)-5-cyano-3,4-dihydroxytetrahydrofuran-2-yl)methyl (2-isopropyl-5-methylphenyl) carbonate] | 2.73 | 20.67 | 193.22 | 1.55 | > 50 | 2.41 | 2 | 
5 | C=CCOC(=O)OC[C@H]1O[C@@](C#N)(c2ccc3c(N)ncnn23)[C@H](O)[C@@H]1O [Compound 64, Ally (((2R,3S,4R,5R)-5-(4-aminopyrrolo[2,1-f][1,2,4]triazin-7-yl)-5-cyano-3,4-dihydroxytetrahydrofuran-2-yl)methyl) carbonate] | 0.39 | 4.6 | 3 | 4.21 | > 50 | 2.66 | 0.993 | 
6 | CC(C)(OC(=O)OC[C@H]1O[C@@](C#N)(c2ccc3c(N)ncnn23)[C@H](O)[C@@H]1O)c1cccnc1 [Compound 99, [(2R,3S,4R,5R)-5-(4-aminopyrrolo[2,1-f][1,2,4]triazin-7-yl)-5-cyano-3,4-dihydroxy-tetrahydrofuran-2-yl]methyl [1-methyl-1-(3-pyridyl)ethyl] carbonate] | 0.11 | 2.47 | 173.49 |  |  | 3.15 | 96.6 | 
7 | CCOC(=O)OC[C@H]1O[C@@](C#N)(c2ccc3c(NC(=O)OCc4ccccc4)ncnn23)[C@H](O)[C@@H]1O [Compound 131, benzyl (7-((2R,3R,4S,5R)-2-cyano-5-(((ethoxycarbonyl)oxy)methyl)-3,4-dihydroxytetrahydrofuran-2-yl)pyrrolo[2,1-f][1,2,4]triazin-4-yl)carbamate] | 2.01 | 15.52 | 150.92 | 8.26 | > 50 | 4.79 | 2.64 | 
8 | CC(C)(OC(=O)OC[C@H]1O[C@@](C#N)(c2ccc3c(N)ncnn23)[C@H](O)[C@@H]1O)c1ccccn1 [Compound 98, [(2R,3S,4R,5R)-5-(4-aminopyrrolo[2,1-f][1,2,4]triazin-7-yl)-5-cyano-3,4-dihydroxy-tetrahydrofuran-2-yl]methyl [1-methyl-1-(2-pyridyl)ethyl] carbonate] | 0.02 | 5.65 | 884.09 |  |  | 9 |  | 789
9 | CC(C)OC(=O)OC[C@H]1O[C@@](C#N)(c2ccc3c(N)ncnn23)[C@H](O)[C@@H]1OC(=O)CCCCCCC(=O)O [Compound 130, 8-(((2R,3S,4R,5R)-5-(4-aminopyrrolo[2,1-f][1,2,4]triazin-7-yl)-5-cyano-4-hydroxy-2-(((isopropoxycarbonyl)oxy)methyl)tetrahydrofuran-3-yl)oxy)-8-oxooctanoic acid] | 0.12 | 2.54 | 409.28 | 9.04 | > 50 | 2.96 | 1.59 | 
10 | COC(=O)OC[C@H]1O[C@@](C#N)(c2ccc3c(N)ncnn23)[C@@H]2OC(=O)O[C@@H]21 [Compound 127, ((3aR4R,6R,6aR)-6-(4-aminopyrrolo[2,1-f][1,2,4]triazin-7-yl)-6-cyano-2-oxotetrahydrofuro[3,4-d][1,3]dioxol-4-yl)methyl methyl carbonate] |  |  | 12.071 | 13.7 | > 50 | 5.06 | 0.957 | 
11 | C=CCCC(=O)O[C@H]1[C@@H](OC(=O)CCC=C)[C@](C#N)(c2ccc3c(N)ncnn23)O[C@@H]1COC(=O)OC(C)C [Compound 134, (2R,3R,4R,5R)-2-(4-aminopyrrolo[2,1-f][1,2,4]triazin-7-yl)-2-cyano-5-(((isopropoxycarbonyl)oxy)methyl)tetrahydrofuran-3,4-diyl bis(pent-4-enoate)] |  |  | 65.405 | 5.13 | > 50 | 1.4 |  | 
12 | CC(=O)OC[C@H]1O[C@@](C#N)(c2ccc3c(N)ncnn23)[C@H](OC(C)=O)[C@@H]1OC(C)=O [3rd Reference Ester Compound] | 5.07 | 8.91 |  |  |  |  |  | 
